Results as given in US20070134261A1, “Effectors of innate immunity” (priority 2001, published 2007).
Residues, ends and D or L forms follow the SMILES beside them.

Tests used:
[1] = test system: THP-1 cells (human monocytes); assay: Induction of IL-8 in undifferentiated THP-1 cells; format: cell-based
Protocol: The murine macrophage cell line RAW 264.7, THP-1 cells (human monocytes), a human epithelial cell line (A549), human bronchial epithelial cells (16HBEo14), and whole human blood were used. HBE cells were grown in MEM with Earle's. THP-1 cells were grown and maintained in RPMI 1640 medium. The RAW and A549 cell lines were maintained in DMEM supplemented with 10% fetal calf serum. […] DMEM was aspirated from cells grown overnight and replaced with fresh medium. After incubation of the cells with peptide, the release of chemokines into the culture supernatant was determined by ELISA (R&D Systems, Minneapolis, Minn.).

[2] = test system: A549 epithelial cells; assay: Human Operon arrays (PRHU04-S1) of A549 cells treated with peptide alone (Tables 31-37, 53); details: peptide 50 μg/ml, 4 h, A549 cells

CC[C@H](C)[C@H](N)C(=O)N[C@@H](CC(C)C)C(=O)N1CCC[C@H]1C(=O)N[C@@H](Cc1c[nH]c2ccccc12)C(=O)N[C@@H](CCCCN)C(=O)N[C@@H](Cc1c[nH]c2ccccc12)C(=O)N1CCC[C@H]1C(=O)N[C@@H](Cc1c[nH]c2ccccc12)C(=O)N[C@@H](Cc1c[nH]c2ccccc12)C(=O)N1CCC[C@H]1C(=O)N[C@@H](Cc1c[nH]c2ccccc12)C(=O)N[C@@H](CCCNC(=N)N)C(=O)N[C@@H](CCCNC(=N)N)C(N)=O [SEQ ID NO: 2]
induction of IL-8 [1]: significantly induced IL-8

CSCC[C@H](NC(=O)[C@H](CO)NC(=O)[C@@H](NC(=O)[C@H](CCCCN)NC(=O)[C@H](Cc1ccccc1)NC(=O)[C@H](CS)NC(=O)[C@H](CO)NC(=O)[C@H](CCCNC(=N)N)NC(=O)[C@@H](N)CCCCN)C(C)C)C(=O)N[C@@H](CCCNC(=N)N)C(=O)NCC(=O)N[C@H](C(=O)N[C@@H](CO)C(=O)N[C@@H](CCCNC(=N)N)C(=O)N[C@@H](CCCNC(=N)N)C(=O)N[C@@H](CCCNC(=N)N)C(=O)N[C@@H](CS)C(=O)N[C@@H](CCCCN)C(=O)O)C(C)C [SEQ ID NO: 27] (H-KRSCFKVSMRGVSRRRCK-OH; N-terminus and C-terminus assumed)
ID#:ctrl expression ratio, AB002359 phosphoribosyl formylglycina midine synthase [2]: 2.7 | ID#:ctrl expression ratio, AB006537 IL-1R accessory protein [2]: 7.0 | ID#:ctrl expression ratio, AB011124 KIAA0552 gene product [2]: 72.0 | ID#:ctrl expression ratio, AB014536 copine III [2]: 9.5 | ID#:ctrl expression ratio, AB018285 KIAA0742 protein [2]: 13.9 | ID#:ctrl expression ratio, AB020659 KIAA0852 protein [2]: 7.6 | ID#:ctrl expression ratio, AC004774 distal-less homeo box 5 [2]: 6.3 | ID#:ctrl expression ratio, AC005154 unkown [2]: 7.2 | ID#:ctrl expression ratio, AF000237 1-acylglycerol-3-phosphate O-acyltransferase 2 [2]: 2.5 | ID#:ctrl expression ratio, AF012086 RAN binding protein 2-like 1 [2]: 4.0 | ID#:ctrl expression ratio, AF030555 fatty-acid-Coenzyme A ligase_long-chain 4 [2]: 2.2 | ID#:ctrl expression ratio, AF035309 proteasome 26S subunit ATPase 5 [2]: 6.6 | ID#:ctrl expression ratio, AF038664 UDP-Gal:beta GlcNAc beta 1_4-galactosyltransferase [2]: 22.2 | ID#:ctrl expression ratio, AF042378 spindle pole body protein [2]: 3.0 | ID#:ctrl expression ratio, AF052138 unknown [2]: 2.8 | ID#:ctrl expression ratio, AF052183 unknown [2]: 3.7 | ID#:ctrl expression ratio, AF071510 lecithin retinol acyltransferase [2]: 10.3 | ID#:ctrl expression ratio, AF074723 RNA polymerase II transcriptional regulation mediator [2]: 3.2 | ID#:ctrl expression ratio, AF080579 Homo sapiens integral membrane protein [2]: 3.0 | ID#:ctrl expression ratio, AF088868 fibrousheathin II [2]: 10.0 | ID#:ctrl expression ratio, AF093265 Homer neuronal immediate early gene_3 [2]: 13.3 | ID#:ctrl expression ratio, AF124735 LIM HOX gene 2 [2]: 4.4 | ID#:ctrl expression ratio, AF131831 unknown [2]: 7.0 | ID#:ctrl expression ratio, AF151043 hypothetical protein [2]: 2.2 | ID#:ctrl expression ratio, AF251040 putative nuclear protein [2]: 3.4 | ID#:ctrl expression ratio, AJ005273 antigenic determinant of recA protein [2]: 11.1 | ID#:ctrl expression ratio, AK000161 hypothetical protein [2]: 8.7 | ID#:ctrl expression ratio, AK000227 hypothetical protein [2]: 7.1 | ID#:ctrl expression ratio, AK000541 hypothetical protein [2]: 13.9 | ID#:ctrl expression ratio, AK000576 hypothetical protein [2]: 9.3 | ID#:ctrl expression ratio, AK001075 hypothetical protein [2]: 2.6 | ID#:ctrl expression ratio, AK001135 Sec23-interacting protein p125 [2]: 4.5 | ID#:ctrl expression ratio, AK001154 hypothetical protein [2]: 4.4 | ID#:ctrl expression ratio, AK001890 unknown [2]: 3.5 | ID#:ctrl expression ratio, AL024493 unknown [2]: 13.5 | ID#:ctrl expression ratio, AL031121 unknown [2]: 3.7 | ID#:ctrl expression ratio, AL031588 hypothetical protein [2]: 20.2 | ID#:ctrl expression ratio, AL035562 paired box gene 1 [2]: 81.9 | ID#:ctrl expression ratio, AL080077 unknown [2]: 2.0 | ID#:ctrl expression ratio, AL096803 unknown [2]: 18.3 | ID#:ctrl expression ratio, AL110125 unknown [2]: 2.7 | ID#:ctrl expression ratio, AL133051 unknown [2]: 6.3 | ID#:ctrl expression ratio, AL133605 unknown [2]: 4.2 | ID#:ctrl expression ratio, AL137268 KIAA0759 protein [2]: 2.3 | ID#:ctrl expression ratio, AL137461 unknown [2]: 9.0 | ID#:ctrl expression ratio, AL137540 unknown [2]: 2.6 | ID#:ctrl expression ratio, AL137577 unknown [2]: 6.2 | ID#:ctrl expression ratio, AL137718 unknown [2]: 8.0 | ID#:ctrl expression ratio, D00760 proteasome subunit_alpha type_2 [2]: 2.6 | ID#:ctrl expression ratio, D12676 CD36 antigen [2]: 3.4 | ID#:ctrl expression ratio, D31891 SET domain_bifurcated_1 [2]: 6.0 | ID#:ctrl expression ratio, D42053 site-1 protease [2]: 7.1 | ID#:ctrl expression ratio, D50405 histone deacetylase 1 [2]: 7.2 | ID#:ctrl expression ratio, D80000 Segregation of mitotic chromosomes 1 [2]: 2.5 | ID#:ctrl expression ratio, D87120 osteoblast protein [2]: 2.0 | ID#:ctrl expression ratio, J03068 N-acylaminoacyl-peptide hydrolase [2]: 5.0 | ID#:ctrl expression ratio, L34587 transcription elongation factor B [2]: 16.3 | ID#:ctrl expression ratio, M34175 adaptor-related protein complex 2 beta 1 subunit [2]: 3.1 | ID#:ctrl expression ratio, M81933 cell division cycle 25A [2]: 3.1 | ID#:ctrl expression ratio, M97925 defensin alpha 5_Paneth cell-specific [2]: 35.9 | ID#:ctrl expression ratio, NM_004732 potassium voltage-gated channel [2]: 4.0 | ID#:ctrl expression ratio, NM_004862 LPS-induced TNF-alpha factor [2]: 4.8 | ID#:ctrl expression ratio, NM_006963 zinc finger protein 22 [2]: 7.6 | ID#:ctrl expression ratio, NM_013329 GC-rich sequence DNA-binding factor candidate [2]: 14.3 | ID#:ctrl expression ratio, NM_013393 cell division protein FtsJ [2]: 5.8 | ID#:ctrl expression ratio, NM_014366 putative nucleotide binding protein_estradiol-induced [2]: 4.3 | ID#:ctrl expression ratio, NM_016015 CGI-68 protein [2]: 2.3 | ID#:ctrl expression ratio, S49953 DNA-binding transcriptional activator [2]: 4.0 | ID#:ctrl expression ratio, S57296 HER2/neu receptor [2]: 12.1 | ID#:ctrl expression ratio, U00115 zinc finger protein 51 [2]: 2.2 | ID#:ctrl expression ratio, U13666 G protein-coupled receptor 1 [2]: 5.4 | ID#:ctrl expression ratio, U33547 MHC class II antigen HLA-DRB6 mRNA [2]: 5.3 | ID#:ctrl expression ratio, U67156 mitogen-activated protein kinase kinase kinase 5 [2]: 3.0 | ID#:ctrl expression ratio, U68018 MAD homolog 2 [2]: 2.2 | ID#:ctrl expression ratio, U71092 G protein-coupled receptor 24 [2]: 9.1 | ID#:ctrl expression ratio, U78305 protein phosphatase 1D [2]: 13.0 | ID#:ctrl expression ratio, U88528 cAMP responsive element binding protein [2]: 5.4 | ID#:ctrl expression ratio, U88666 SFRS protein kinase 2 [2]: 5.9 | ID#:ctrl expression ratio, X59770 IL-1R type II [2]: 4.7 | ID#:ctrl expression ratio, X62744 MHC class II DM alpha [2]: 4.7 | ID#:ctrl expression ratio, X63563 polymerase II polypeptide B [2]: 8.1 | ID#:ctrl expression ratio, X89399 RAS p21 protein activator [2]: 14.9
